Laboratory results reported in patent publication US6737383B1, “Herbicidal oxadiazolidines” (priority 1999, dated 2004).

Tests used:
winter wheat [1] = assay: Test E winter wheat; format: in vivo, Triticum aestivum; conditions: Postemergence
Method in brief: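 Each compound, carried in a non-phytotoxic solvent blend including surfactant, was applied (postemergence: over the top of young plants at 1- to 4-leaf stage). Plants stayed in the greenhouse about 21 to 28 days before visual comparison with untreated controls.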

common pursiane = assay: Test D common purslane; format: in vivo, Portulaca oleracea; conditions: Preemergence, 0 to 100 scale
Method in brief: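 Visual injury ratings, 0 = no injury to 100 = complete control, taken 14 to 21 days after treatment. Test chemicals were in a surfactant-containing non-phytotoxic solvent; preemergence treatments went onto the sandy loam surface of seeded greenhouse pots within one day of sowing.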

wild oat = assay: Test E wild oat; format: in vivo, Avena fatua; conditions: Preemergence
blackgrass = assay: Test E blackgrass; format: in vivo, Alopecurus myosuroides; conditions: Preemergence
bamyardgrass = assay: Test B flood test barnyardgrass; format: in vivo, Echinochloa crus-galli
Method in brief: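 Flood test on plants grown to the 2-leaf stage; treated plants kept in greenhouse twelve to sixteen days, then visually rated against controls on a 0 (no effect) to 10 (complete control) scale.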

winter wheat [2] = assay: Test E winter wheat; format: in vivo, Triticum aestivum; conditions: Preemergence
Italian ryegrass = assay: Test E Italian ryegrass; format: in vivo, Lolium multiflorum; conditions: Preemergence
rape = assay: Test B pre/postemergence rape; format: in vivo, Brassica napus
Method in brief: (§1)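 Response is a visual 0-to-10 score relative to untreated plants, where 0 means no effect and 10 means complete control, taken twelve to sixteen days after application. Treatments went onto soil at planting and onto foliage of 1- to 4-leaf plants, using a surfactant-containing non-phytotoxic solvent.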

green foxtail = assay: Test E green foxtail; format: in vivo, Setaria viridis; conditions: Preemergence
sugar beet = assay: Test B pre/postemergence sugar beet; format: in vivo, Beta vulgaris; conditions: for Sugarbeets plant response rating (0 to 10 scale): 0 is no effect; for Plant response rating, Sugarbeets: Rate 250 g/ha
Method in brief: as §1

winter barley = assay: Test E winter barley; format: in vivo, Hordeum vulgare; conditions: Preemergence
cocklebur = assay: Test B pre/postemergence cocklebur; format: in vivo, Xanthium strumarium
Method in brief: as §1

[3] = Rate 250 g/ha, 0 to 100 scale (0 no effect, 100 complete control)
[4] = Rate 500 g/ha, 0 to 100 scale, 0 no effect, 100 complete control
[5] = Rate 125 g/ha, 0 no injury, 100 complete control
[6] = Rate 62 g/ha, 0 to 100 scale, 0 no effect, 100 complete control
[7] = Rate 125 g/ha, 0 to 100 scale (0 no effect, 100 complete control)
[8] = Rate 500 g/ha, 0 to 100 scale where 0 is no effect and 100 is complete control
[9] = Postemergence, Rate 62 g/ha, scale 0 to 10, 0 is no effect, 10 is complete control
[10] = Rate 125 g/ha, Postemergence section (flood test species), scale 0 to 10, 0 no effect, 10 complete control
[11] = Rate 500 g/ha, listed under Postemergence (flood test species), scale 0 to 10, 0 no effect, 10 complete control
[12] = flood test, listed under Postemergence, Rate 250 g/ha, scale 0 to 10, 0 no effect, 10 complete control
[13] = Postemergence, Rate 125 g/ha, scale of 0 to 10 where 0 is no effect and 10 is complete control
[14] = Postemergence, Rate 250 g/ha, scale 0 to 10, 0 no effect, 10 complete control
[15] = Preemergence, Rate 62 g/ha, scale 0 to 10 (0 no effect, 10 complete control)
[16] = Preemergence, Rate 125 g/ha, scale 0 to 10 (0 no effect, 10 complete control)
[17] = Preemergence, Rate 250 g/ha, scale of 0 to 10 where 0 is no effect and 10 is complete control
[18] = Preemergence, Rate 500 g/ha, scale 0 to 10 (0 no effect, 10 complete control)
[19] = Rate 62 g/ha, Postemergence, scale of 0 to 10 where 0 is no effect and 10 is complete control
[20] = Rate 500 g/ha, Postemergence, scale 0 to 10, 0 no effect, 10 complete control
[21] = Preemergence, Rate 125 g/ha, 10 is complete control
[22] = Preemergence, scale of 0 to 10 where 0 is no effect and 10 is complete control
[23] = Postemergence, scale 0 to 10, 0 is no effect, 10 is complete control

Compound: CC(C)N(C(=O)n1oc(=O)n(C(C)C)c1=O)c1ccc(Cl)cc1 [Compound 114]
- Plant response rating, Wheat (winter) (winter wheat [1]; Rate 62 g/ha, 0 to 100 scale): 0
- Plant response rating, Wheat (winter) (winter wheat [1]; Rate 125 g/ha, 0 to 100 scale): 10
- Plant response rating, Wheat (winter) (winter wheat [1]; [3]): 60
- Plant response rating, Wheat (winter) (winter wheat [1]; [4]): 20
- Plant response rating, C. purslane (common pursiane; [5]): 0
- Plant response rating, Wild oat (wild oat; [6]): 20
- Plant response rating, Wild oat (wild oat; [7]): 40
- Plant response rating, Wild oat (wild oat; [8]): 70
- Plant response rating, Blackgrass (blackgrass; [6]): 30
- Plant response rating, Blackgrass (blackgrass; [7]): 50
- Plant response rating, Blackgrass (blackgrass; Rate 250 g/ha, 0 to 100 scale): 50
- Plant response rating, Blackgrass (blackgrass; [8]): 100
- Barnyardgrass plant response rating (bamyardgrass; [9]): 0
- Barnyardgrass plant response rating (bamyardgrass; [10]): 0
- Barnyardgrass plant response rating (bamyardgrass; [11]): 0
- Barnyardgrass plant response rating (bamyardgrass; [12]): 0
- Plant response rating, Wheat (winter) (winter wheat [2]; [6]): 0
- Plant response rating, Wheat (winter) (winter wheat [2]; [7]): 10
- Plant response rating, Wheat (winter) (winter wheat [2]; Rate 250 g/ha, 0 to 100 scale): 0
- Plant response rating, Wheat (winter) (winter wheat [2]; [8]): 0
- Plant response rating, I. Ryegrass (Italian ryegrass; [6]): 20
- Plant response rating, I. Ryegrass (Italian ryegrass; [7]): 30
- Plant response rating, I. Ryegrass (Italian ryegrass; Rate 250 g/ha, 0 to 100 scale): 100
- Plant response rating, I. Ryegrass (Italian ryegrass; [8]): 95
- Rape plant response rating (rape; [13]): 3
- Rape plant response rating (rape; [14]): 3
- Rape plant response rating (rape; [15]): 0
- Plant response rating, Rape (rape; [16]): 3
- Plant response rating, Rape (rape; [17]): 6
- Rape plant response rating (rape; [18]): 10
- Rape plant response rating (rape; [19]): 3
- Rape plant response rating (rape; [20]): 7
- Plant response rating, Green foxtail (green foxtail; [6]): 45
- Plant response rating, Green foxtail (green foxtail; [7]): 100
- Plant response rating, Green foxtail (green foxtail; Rate 250 g/ha, 0 to 100 scale): 100
- Plant response rating, Green foxtail (green foxtail; [8]): 85
- Sugarbeets plant response rating (sugar beet; [13]): 3
- Sugarbeets plant response rating (sugar beet; [15]): 4
- Sugarbeets plant response rating (0 to 10 scale) (sugar beet; [21]): 6
- Plant response rating, Sugarbeets (sugar beet; [22]): 7
- Sugarbeets plant response rating (sugar beet; [18]): 7
- Sugarbeets plant response rating (sugar beet; [19]): 3
- Plant response rating, Sugarbeets (sugar beet; [23]): 4
- Sugarbeets plant response rating (sugar beet; [20]): 5
- Plant response rating, Barley (winter) (winter barley; [6]): 0
- Plant response rating, Barley (winter) (winter barley; [7]): 5
- Plant response rating, Barley (winter) (winter barley; Rate 250 g/ha, 0 to 100 scale): 10
- Plant response rating, Barley (winter) (winter barley; [8]): 40
- Cocklebur plant response rating (cocklebur; [13]): 0
- Cocklebur plant response rating (cocklebur; [14]): 0
- Cocklebur plant response rating (cocklebur; [15]): 0
- Plant response rating, Cocklebur (cocklebur; [16]): 0
- Plant response rating, Cocklebur (cocklebur; [17]): 0
- Cocklebur plant response rating (cocklebur; [19]): 0
- Cocklebur plant response rating (cocklebur; [20]): 0

Compound: C=CCn1c(=O)on(C(=O)N(c2ccc(Cl)cc2)C(C)C)c1=O [Compound 105]
- Plant response rating, Wheat (winter) (winter wheat [1]; Rate 125 g/ha, 0 to 100 scale): 10
- Plant response rating, Wheat (winter) (winter wheat [1]; [3]): 10
- Plant response rating, Wheat (winter) (winter wheat [1]; [4]): 20
- Plant response rating, C. purslane (common pursiane; Rate 16 g/ha, 0 no injury, 100 complete control): 0
- Plant response rating, C. purslane (common pursiane; Rate 32 g/ha, 0 no injury, 100 complete control): 0
- Plant response rating, C. purslane (common pursiane; Rate 64 g/ha, 0 no injury, 100 complete control): 0
- Plant response rating, C. purslane (common pursiane; [5]): 0
- Plant response rating, C. purslane (common pursiane; Rate 250 g/ha): 0
- Plant response rating, C. purslane (common pursiane; Rate 500 g/ha): 0
- Plant response rating, Wild oat (wild oat; [7]): 30
- Plant response rating, Wild oat (wild oat; [8]): 55
- Plant response rating, Blackgrass (blackgrass; [7]): 20
- Plant response rating, Blackgrass (blackgrass; Rate 250 g/ha, 0 to 100 scale): 50
- Plant response rating, Blackgrass (blackgrass; [8]): 50
- Barnyardgrass plant response rating (bamyardgrass; [9]): 0
- Barnyardgrass plant response rating (bamyardgrass; [10]): 0
- Barnyardgrass plant response rating (bamyardgrass; Rate 250 g/ha, headed Pre-emergence (flood test species), scale 0 to 10 (0 no effect, 10 complete control)): 0
- Plant response rating, Barnyardgrass (bamyardgrass; Rate 500 g/ha, headed Pre-emergence (flood test species), scale 0 to 10 (0 no effect, 10 complete control)): 0
- Barnyardgrass plant response rating (bamyardgrass; [11]): 0
- Barnyardgrass plant response rating (bamyardgrass; Rate 1000 g/ha, Pre-emergence (as headed), scale 0 to 10): 0
- Barnyardgrass plant response rating (bamyardgrass; Rate 2000 g/ha, Pre-emergence (as headed), scale 0 to 10, 0 no effect, 10 complete control): 0
- Barnyardgrass plant response rating (bamyardgrass; [12]): 0
- Plant response rating, Wheat (winter) (winter wheat [2]; [7]): 10
- Plant response rating, Wheat (winter) (winter wheat [2]; Rate 250 g/ha, 0 to 100 scale): 0
- Plant response rating, Wheat (winter) (winter wheat [2]; [8]): 10
- Plant response rating, I. Ryegrass (Italian ryegrass; [7]): 30
- Plant response rating, I. Ryegrass (Italian ryegrass; Rate 250 g/ha, 0 to 100 scale): 30
- Plant response rating, I. Ryegrass (Italian ryegrass; [8]): 85
- Rape plant response rating (rape; [13]): 0
- Rape plant response rating (rape; [14]): 0
- Rape plant response rating (rape; [15]): 0
- Plant response rating, Rape (rape; [16]): 1
- Plant response rating, Rape (rape; [17]): 4
- Rape plant response rating (rape; [18]): 6
- Rape plant response rating (rape; [19]): 0
- Rape plant response rating (rape; [20]): 2
- Plant response rating, Green foxtail (green foxtail; [7]): 55
- Plant response rating, Green foxtail (green foxtail; Rate 250 g/ha, 0 to 100 scale): 90
- Plant response rating, Green foxtail (green foxtail; [8]): 100
- Sugarbeets plant response rating (sugar beet; [13]): 0
- Sugarbeets plant response rating (sugar beet; [15]): 0
- Sugarbeets plant response rating (0 to 10 scale) (sugar beet; [21]): 1
- Plant response rating, Sugarbeets (sugar beet; [22]): 4
- Sugarbeets plant response rating (sugar beet; [18]): 9
- Sugarbeets plant response rating (sugar beet; [19]): 0
- Plant response rating, Sugarbeets (sugar beet; [23]): 0
- Sugarbeets plant response rating (sugar beet; [20]): 0
- Plant response rating, Barley (winter) (winter barley; [7]): 0
- Plant response rating, Barley (winter) (winter barley; Rate 250 g/ha, 0 to 100 scale): 0
- Plant response rating, Barley (winter) (winter barley; [8]): 10
- Cocklebur plant response rating (cocklebur; [13]): 0
- Cocklebur plant response rating (cocklebur; [14]): 1
- Cocklebur plant response rating (cocklebur; [15]): 0
- Plant response rating, Cocklebur (cocklebur; [16]): 0
- Plant response rating, Cocklebur (cocklebur; [17]): 0
- Cocklebur plant response rating (cocklebur; [18]): 0
- Cocklebur plant response rating (cocklebur; [19]): 0
- Cocklebur plant response rating (cocklebur; [20]): 4
